Experimental data as given in ChEMBL document CHEMBL4043096, “Synthesis of 6-hydroxyaurone analogues and evaluation of their α-glucosidase inhibitory and glucose consumption-promoting activity: Development of highly active 5,6-disubstituted derivatives” (Bioorg Med Chem Lett, 2017).
Active and inactive are the calls of the source. No cut-off for these calls is given here.

Tests used:
[1] = Inhibition of baker's yeast alpha-glucosidase incubated for 30 mins using p-nitrophenyl-alpha-D-glucopyranoside substrate by spectrophotometry; parameters: species or system Saccharomyces cerevisiae
HepG2 [2] = experiment: Induction of glucose consumption in human HepG2 cells at 1 uM incubated for 24 hrs; type: functional, cell-based
Saccharomyces cerevisiae [3] = experiment: Irreversible inhibition of baker's yeast alpha-glucosidase incubated for 30 mins using p-nitrophenyl-alpha-D-glucopyranoside substrate by spectrophotometry based Lineweaver-Burk plot analysis
Saccharomyces cerevisiae [4] = experiment: Irreversible inhibition of baker's yeast alpha-glucosidase at […] dialyzed for 24 hrs followed by compound re-treatment for 30 mins using p-nitrophenyl-alpha-D-glucopyranoside substrate
Saccharomyces cerevisiae [5] = experiment: Mixed competitive inhibition of baker's yeast alpha-glucosidase incubated for 30 mins using p-nitrophenyl-alpha-D-glucopyranoside substrate by spectrophotometry based Lineweaver-Burk plot analysis
HepG2 [6] = experiment: Induction of glucose consumption in human HepG2 cells at 1 mM incubated for 24 hrs; type: functional, cell-based

Q: For `COc1ccc(COc2ccc3c(c2)O/C(=C\c2ccccc2)C3=O)cc1`, which IC50 [1] is on record?
A: 19.8 µM

Q: Which results are given for `COc1cc2c(cc1-c1ccc(F)cc1)C(=O)CO2`?
A: Activity (HepG2 [2]): Active; inhibition (Saccharomyces cerevisiae [3]): Active; inhibition (Saccharomyces cerevisiae [4]): Active; inhibition (Saccharomyces cerevisiae [5]): Active; IC50 [1]: 9.88 µM

Q: For `COc1cc2c(cc1-c1ccccc1)C(=O)/C(=C/c1ccccc1)O2`, which IC50 [1] is on record?
A: > 100 µM

Q: With `O=C1/C(=C/c2ccc(O)c(O)c2)Oc2cc(O)ccc21` [SULFURETIN] as the compound, how does the IC50 [1] read?
A: 67.6 µM

Q: Which IC50 [1] does the source give for `COc1ccc(COc2cc3c(cc2-c2ccc(C(F)(F)F)cc2)C(=O)CO3)cc1` here?
A: 10.9 µM

Q: For `CCOC(=O)/C=C1\Oc2cc(OCc3ccc(OC)cc3)ccc2C1=O`, which IC50 [1] is on record?
A: 33.4 µM

Q: With `O=C1/C(=C/c2ccccc2)Oc2cc(O)ccc21` as the compound, how does the IC50 [1] read?
A: > 100 µM

Q: With `COc1cc2c(cc1-c1ccc(C(F)(F)F)cc1)C(=O)CO2` as the compound, how does the IC50 [1] read?
A: 21.2 µM

Q: With `CCOC(=O)/C=C1\Oc2cc(O)c(-c3ccc(C(F)(F)F)cc3)cc2C1=O` as the compound, how does the IC50 [1] read?
A: 14.3 µM

Q: With `O=C1/C(=C/c2ccc(O)cc2O)Oc2cc(O)ccc21` as the compound, how does the IC50 [1] read?
A: 79.2 µM

Q: Which IC50 [1] does the source give for `COc1cc2c(cc1-c1ccc(F)cc1)C(=O)/C(=C/c1ccccc1)O2` here?
A: > 100 µM

Q: For `C[C@H]1O[C@H](O[C@H]2[C@H](O)[C@@H](O)[C@@H](O[C@H]3[C@H](O)[C@@H](O)C(O)O[C@@H]3CO)O[C@@H]2CO)[C@H](O)[C@@H](O)[C@@H]1N[C@H]1C=C(CO)[C@@H](O)[C@H](O)[C@H]1O` (stereo partly specified) [ACARBOSE], which IC50 [1] is on record?
A: 50.3 µM

Q: With `O=C1/C(=C/c2ccccc2O)Oc2cc(O)ccc21` as the compound, how does the IC50 [1] read?
A: 93 µM

Q: Which IC50 [1] does the source give for `O=C1/C(=C/c2ccc(O)cc2)Oc2cc(O)ccc21` here?
A: 76.7 µM

Q: Which IC50 [1] does the source give for `CCOC(=O)/C=C1\Oc2cc(O)c(-c3ccc(F)cc3)cc2C1=O` here?
A: 11.1 µM

Q: For `O=C1c2ccc(O)cc2OC1Cc1ccc(O)c(O)c1` (stereo unspecified), which IC50 [1] is on record?
A: 63.4 µM

Q: Which IC50 [1] does the source give for `COc1ccc(COc2ccc3c(c2)OCC3=O)cc1` here?
A: > 100 µM

Q: Which Activity (HepG2 [2]) does the source give for `COc1ccc(COc2cc3c(cc2-c2ccccc2)C(=O)CO3)cc1` here?
A: inactive

Q: And the IC50 [1]?
A: 10.6 µM

Q: For `O=C1/C(=C/c2cccc(O)c2)Oc2cc(O)ccc21`, which IC50 [1] is on record?
A: > 100 µM

Q: With `CN(C)C(=N)NC(=N)N` as the compound, how does the Activity (HepG2 [6]) read?
A: Active

Q: Which IC50 [1] does the source give for `COc1cc2c(cc1-c1ccccc1)C(=O)CO2` here?
A: 20.1 µM

Q: For `O=C1/C(=C/c2ccccc2)Oc2cc(O)c(-c3ccc(C(F)(F)F)cc3)cc21`, which Activity (HepG2 [2]) is on record?
A: Active

Q: What about the IC50 [1] of the same compound?
A: 30.9 µM

Q: With `COc1ccc(/C=C2\Oc3cc(O)ccc3C2=O)cc1OC` as the compound, how does the IC50 [1] read?
A: > 100 µM

Q: Which IC50 [1] does the source give for `CCOC(=O)/C=C1\Oc2cc(OC)c(-c3ccc(F)cc3)cc2C1=O` here?
A: 26.6 µM

Q: With `COc1ccc(COc2cc3c(cc2-c2ccc(F)cc2)C(=O)CO3)cc1` as the compound, how does the IC50 [1] read?
A: 24.9 µM
